Earlier results as cited in patent US20140004171A1, “TREATMENT OF ENDOMETRIOSIS BY INTRAVAGINAL ADMINISTRATION OF A LOW DOSE OF A SELECTIVE PROGESTERONE RECEPTOR MODULATOR (SPRM), ANTI-PROGESTIN, OR ANTI-PROGESTATIONAL AGENT” (ARSTAT Inc., priority 2011, published 2014).

Key:
liver enzymes = details: oral
[1] = tested on: endometrial lining of the uterus; details: oral
women with endometriosis [2] = details: oral, 100 mg daily for three months
women with endometriosis [3] = details: oral, 50 mg daily for 6 months, nine women
women with endometriosis [4] = details: oral, 5 mg daily for 6 months, seven women
[5] = tested on: uterine and fibroid volumes

## COCC(=O)[C@@]1(OC(C)=O)CC[C@H]2[C@@H]3CCC4=CC(=O)CCC4=C3[C@@H](c3ccc(N(C)C)cc3)C[C@@]21C [CDB-4124]
Liver enzymes
  Safety finding that suspended Phase III studies: significant increases in liver enzymes

## COC[C@]1(OC)CC[C@H]2[C@@H]3CCC4=CC(=O)CCC4=C3[C@@H](c3ccc(/C=N/O)cc3)C[C@@]21C [asoprisnil]
[1]
  Safety finding that terminated Phase III studies: changes in the endometrial lining of the uterus

## CC#C[C@]1(O)CC[C@H]2[C@@H]3CCC4=CC(=O)CCC4=C3[C@@H](c3ccc(N(C)C)cc3)C[C@@]21C [mifepristone]
Women with endometriosis [2]; six normally cycling women with endometriosis
  Amenorrhea reported: all study participants
Women with endometriosis [2]; six women
  Change in the extent of endometriosis (follow-up laparoscopy): no significant change
  Improvement in pelvic pain: all women
Women with endometriosis [3]
  Amenorrhea without hypoestrogenism: All patients
  Pelvic pain and uterine cramping improved: all patients
  Regression of endometriosis (laparoscopic assessment of endometrial implants, AFS score): 55%
Women with endometriosis [4]
  Cyclic bleeding ceased: all patients
  Decrease of mean endometriosis scores: 20%
  Pelvic pain improved: six of seven
[5]
  Oral dose effective in the reduction of uterine and fibroid volumes and related symptoms: ≥ 10 mg/day
[5]; oral, 2.5 mg/day
  Incidence of amenorrhea: lower incidence of amenorrhea
  Reduction of uterine volume: appreciably smaller reduction of uterine volume
[5]; oral, 5 mg/day
  Ability to reduce uterine volume and eliminate some fibroid-related symptoms: limited
[5]; oral, 10 mg/day or higher
  Incidence of side effects (endometrial hyperplasia, hot flashes, elevated liver enzymes): greater than desired
